The target of experiment [1] is T1, NA from influenza A(H1N1) virus isolates (Influenza A virus, UniProt C0LLZ0). The experiment is classed as biochemical.
Experiment [2] concerns the target T2, NA from influenza A(H3N2) virus isolates (Influenza A virus, UniProt V5P6L4). The format is biochemical.
Experiment [3] concerns NA from influenza A(H1N1)pdm09 virus isolates. To be noted: cited from earlier work; for pIC50: read-out: IC50, susceptible reference strain.
The target of experiment [4] is T1, NA from influenza A(H1N1) virus isolates. To be noted: cited from earlier work.
Experiment [5] has as its target T2, NA from influenza A(H3N2) virus isolates. To be noted: cited from earlier work.
Experiment [6] deals with NA from influenza A(H1N1)pdm09 virus isolates (Influenza A virus, UniProt C7FH46). The format is biochemical.
Experiment [7] concerns the target NA from influenza B virus isolates (Influenza B virus, UniProt A0A1S5RAG6). The experiment is classed as biochemical.
[8] abbreviates: read-out: IC50, susceptible reference strain.

pIC50: −log10 of the molar value. Read-outs that look alike come from different tables or passages of the source.

With `CCOC(=O)C1=C[C@@H](OC(CC)CC)[C@H](NC(C)=O)[C@@H](N)C1` [oseltamivir], the Susceptible result in experiment [1] is “susceptible and Yes and No”; in experiment [2] it was “susceptible and Yes”; in experiment [6], “susceptible and Yes”; in experiment [7], “susceptible and Yes”. Besides, the outlier virus isolates in experiment [1] is reported as 2/4. The “share of virus isolates with markedly increased IC50” value in experiment [1] stood at 97.9%. Further, the pIC50 in experiment [2] (read-out: IC50 Median (range)) is 10.30; in experiment [2] (read-out: IC50 Statistical cutoff (X 0.75 + 3IQR)), 9.82; in experiment [2] (read-out: IC50 X 0.75 (75th percentile)), 10.22; in experiment [3] it was 10.00; in experiment [4] (setting [8]) it was 9.89; in experiment [5] (setting [8]), 9.68.
Regarding `CC(=O)N[C@H]1[C@H]([C@H](O)[C@H](O)CO)OC(C(=O)O)=C[C@@H]1N=C(N)N` [zanamivir], the Susceptible entry in experiment [1] is “susceptible and Yes”; in experiment [2], “susceptible and Yes”; in experiment [6] it was “susceptible and Yes”. Besides, the outlier virus isolates in experiment [1] is given as 3/4. Further, the “susceptibility phenotype of reference virus” value in experiment [3], in experiment [4] and in experiment [5] was “susceptible” each time. Besides, the pIC50 in experiment [3] is 9.38.

The record behind these values is PMC6304311 (Influenza and Other Respiratory Viruses, 2018).
